Legend:
Rattus norvegicus [1] = assay: Toxicity in anaesthetized-Wistar rat assessed as P-Q ECG interval at 40 mg/kg, ip measured immediately at 0 min (reference value: 52.4 +/- 0.927 ms); type: organism-based; set-up: dose 40 mg/kg, route intraperitoneal; conditions: in vivo, 0 h
Rattus norvegicus [2] = assay: Toxicity in anaesthetized-Wistar rat assessed as QRS ECG interval at 40 mg/kg, ip after 30 mins (reference value: 19.9 +/- 1.393 ms); type: organism-based; set-up: dose 40 mg/kg, route intraperitoneal; conditions: in vivo, 0.5 h
Rattus norvegicus [3] = assay: Toxicity in anaesthetized-Wistar rat assessed as P-Q ECG interval at 40 mg/kg, ip after 15 mins (reference value: 52.2 +/- 1.158 ms); type: organism-based; set-up: dose 40 mg/kg, route intraperitoneal; conditions: in vivo, 0.25 h
Rattus norvegicus [4] = assay: Toxicity in anaesthetized-Wistar rat assessed as P-Q ECG interval at 40 mg/kg, ip after 45 mins (reference value: 52.5 +/- 0.780 ms); type: organism-based; set-up: dose 40 mg/kg, route intraperitoneal; conditions: in vivo, 0.75 h
Rattus norvegicus [5] = assay: Antihypertensive activity in Wistar rat assessed as mean arterial pressure at 40 mg/kg, ip after 30 mins (reference value: 194.72 +/- 1.002 mmHg); type: functional, Artery; conditions: route intraperitoneal
Rattus norvegicus [6] = assay: Antiarrhythmic activity in barium chloride-induced Wistar rat assessed as increase in mortality time at 40 mg/kg, ip administered 60 mins before barium chloride challenge (reference value: 682.8 +/- 9.656 secs); type: functional, Heart; conditions: route intraperitoneal
Rattus norvegicus [7] = assay: Antihypertensive activity in Wistar rat assessed as mean arterial pressure at 40 mg/kg, ip after 15 mins (reference value: 195.68 +/- 1.623 mmHg); type: functional, Artery; conditions: route intraperitoneal
Rattus norvegicus [8] = assay: Toxicity in […] normotensive Wistar rat assessed as mean arterial pressure at 40 mg/kg, ip after 30 mins (reference value: 94.68 +/- 1.213 mmHg); type: organism-based, Artery; set-up: dose 40 mg/kg, route intraperitoneal; conditions: in vivo, 0.5 h
Rattus norvegicus [9] = assay: Toxicity in […] normotensive Wistar rat assessed as mean arterial pressure at 40 mg/kg, ip measured immediately at 0 min (reference value: 94.21 +/- 2.065 mmHg); type: organism-based, Artery; set-up: dose 40 mg/kg, route intraperitoneal; conditions: in vivo, 0 h
Rattus norvegicus [10] = assay: Toxicity in anaesthetized-Wistar rat assessed as P-Q ECG interval at 40 mg/kg, ip after 60 mins (reference value: […] +/- 0.924 ms); type: organism-based; set-up: dose 40 mg/kg, route intraperitoneal; conditions: in vivo, 1 h
Rattus norvegicus [11] = assay: Toxicity in anesthetized-normotensive Wistar rat assessed as heart rate at 40 mg/kg, ip after 30 mins (reference value: 317.68 +/- 7.631 bpm); type: organism-based; set-up: dose 40 mg/kg, route intraperitoneal; conditions: in vivo, 0.5 h
Rattus norvegicus [12] = assay: Toxicity in anaesthetized-Wistar rat assessed as QRS ECG interval at 40 mg/kg, ip measured immediately at 0 min (reference value: 19.6 +/- 1.142 ms); type: organism-based; set-up: dose 40 mg/kg, route intraperitoneal; conditions: in vivo, 0 h
Rattus norvegicus [13] = assay: Toxicity in anesthetized-normotensive Wistar rat assessed as heart rate at 40 mg/kg, ip after 60 mins (reference value: 314.96 +/- 9.442 bpm); type: organism-based; set-up: dose 40 mg/kg, route intraperitoneal; conditions: in vivo, 1 h
Rattus norvegicus [14] = assay: Toxicity in anaesthetized-Wistar rat assessed as QRS ECG interval at 40 mg/kg, ip after 15 mins (reference value: 18.9 +/- 1.563 ms); type: organism-based; set-up: dose 40 mg/kg, route intraperitoneal; conditions: in vivo, 0.25 h
Rattus norvegicus [15] = assay: Toxicity in anesthetized-normotensive Wistar rat assessed as heart rate at 40 mg/kg, ip measured immediately at 0 min (reference value: 316.62 +/- 9.643 bpm); type: organism-based; set-up: dose 40 mg/kg, route intraperitoneal; conditions: in vivo, 0 h
Rattus norvegicus [16] = assay: Toxicity in […] normotensive Wistar rat assessed as mean arterial pressure at 40 mg/kg, ip after 60 mins (reference value: 95.07 +/- 1.973 mmHg); type: organism-based, Artery; set-up: dose 40 mg/kg, route intraperitoneal; conditions: in vivo, 1 h
Rattus norvegicus [17] = assay: Toxicity in anaesthetized-Wistar rat assessed as Q-T ECG interval at 40 mg/kg, ip measured immediately at 0 min (reference value: 78.8 +/- 1.030 ms); type: organism-based; set-up: dose 40 mg/kg, route intraperitoneal; conditions: in vivo, 0 h
Rattus norvegicus [18] = assay: Antihypertensive activity in Wistar rat assessed as mean arterial pressure at 40 mg/kg, ip measured immediately at 0 min (reference value: 194.08 +/- 1.962 mmHg); type: functional, Artery; conditions: route intraperitoneal
Rattus norvegicus [19] = assay: Antiarrhythmic activity in barium chloride-induced Wistar rat assessed as increase in appearance time of arrhythmia at 40 mg/kg, ip administered 60 mins before barium chloride challenge (reference value: 129.4 +/- 4.373 sec); type: functional, Heart; conditions: route intraperitoneal
Rattus norvegicus [20] = assay: Toxicity in anaesthetized-Wistar rat assessed as Q-T ECG interval at 40 mg/kg, ip after 30 mins (reference value: 78.3 +/- 0.860 ms); type: organism-based; set-up: dose 40 mg/kg, route intraperitoneal; conditions: in vivo, 0.5 h
Rattus norvegicus [21] = assay: Toxicity in anaesthetized-Wistar rat assessed as P-Q ECG interval at 40 mg/kg, ip after 30 mins (reference value: […] +/- 0.927 ms); type: organism-based; set-up: dose 40 mg/kg, route intraperitoneal; conditions: in vivo, 0.5 h
Rattus norvegicus [22] = assay: Toxicity in anaesthetized-Wistar rat assessed as Q-T ECG interval at 40 mg/kg, ip after 15 mins (reference value: 79.4 +/- 1.270 ms); type: organism-based; set-up: dose 40 mg/kg, route intraperitoneal; conditions: in vivo, 0.25 h
Rattus norvegicus [23] = assay: Toxicity in anesthetized-normotensive Wistar rat assessed as heart rate at 40 mg/kg, ip after 45 mins (reference value: 316.82 +/- 8.452 bpm); type: organism-based; set-up: dose 40 mg/kg, route intraperitoneal; conditions: in vivo, 0.75 h
Rattus norvegicus [24] = assay: Toxicity in […] normotensive Wistar rat assessed as mean arterial pressure at 40 mg/kg, ip after 15 mins (reference value: 93.81 +/- 1.543 mmHg); type: organism-based, Artery; set-up: dose 40 mg/kg, route intraperitoneal; conditions: in vivo, 0.25 h
Rattus norvegicus [25] = assay: Toxicity in anaesthetized-Wistar rat assessed as QRS ECG interval at 40 mg/kg, ip after 60 mins (reference value: 19.3 +/- 0.873 ms); type: organism-based; set-up: dose 40 mg/kg, route intraperitoneal; conditions: in vivo, 1 h
Rattus norvegicus [26] = assay: Toxicity in anaesthetized-Wistar rat assessed as Q-T ECG interval at 40 mg/kg, ip after 60 mins (reference value: 79.7 +/- 0.965 ms); type: organism-based; set-up: dose 40 mg/kg, route intraperitoneal; conditions: in vivo, 1 h
Rattus norvegicus [27] = assay: Toxicity in anaesthetized-Wistar rat assessed as QRS ECG interval at 40 mg/kg, ip after 45 mins (reference value: 20.2 +/- 1.348 ms); type: organism-based; set-up: dose 40 mg/kg, route intraperitoneal; conditions: in vivo, 0.75 h
Rattus norvegicus [28] = assay: Toxicity in anesthetized-normotensive Wistar rat assessed as heart rate at 40 mg/kg, ip after 15 mins (reference value: 313.93 +/- 9.912 bpm); type: organism-based; set-up: dose 40 mg/kg, route intraperitoneal; conditions: in vivo, 0.25 h
Rattus norvegicus [29] = assay: Toxicity in […] normotensive Wistar rat assessed as mean arterial pressure at 40 mg/kg, ip after 45 mins (reference value: 94.83 +/- 0.943 mmHg); type: organism-based, Artery; set-up: dose 40 mg/kg, route intraperitoneal; conditions: in vivo, 0.75 h
Rattus norvegicus [30] = assay: Antihypertensive activity in Wistar rat assessed as mean arterial pressure at 40 mg/kg, ip after 45 mins (reference value: 193.96 +/- 0.865 mmHg); type: functional, Artery; conditions: route intraperitoneal
Rattus norvegicus [31] = assay: Antihypertensive activity in Wistar rat assessed as mean arterial pressure at 40 mg/kg, ip after 60 mins (reference value: 195.11 +/- 0.531 mmHg); type: functional, Artery; conditions: route intraperitoneal

Row | SMILES | Activity (Rattus norvegicus [1]) | Activity (Rattus norvegicus [2]) | Activity (Rattus norvegicus [3]) | Activity (Rattus norvegicus [4]) | Activity (Rattus norvegicus [5]) | Time (Rattus norvegicus [6]) | Activity (Rattus norvegicus [7]) | Activity (Rattus norvegicus [8]) | Activity (Rattus norvegicus [9]) | Activity (Rattus norvegicus [10]) | Activity (Rattus norvegicus [11]) | Activity (Rattus norvegicus [12]) | Activity (Rattus norvegicus [13]) | Activity (Rattus norvegicus [14]) | Activity (Rattus norvegicus [15]) | Activity (Rattus norvegicus [16]) | Activity (Rattus norvegicus [17]) | Activity (Rattus norvegicus [18]) | Time (Rattus norvegicus [19]) | Activity (Rattus norvegicus [20]) | further results
1 | CCCCN(CCCC)CC(O)CN1C(=O)/C(=C\c2ccccc2)S/C1=N\c1ccccc1 (stereo not drawn) | 53.5 ms | 22 ms | 55 min | 57.3 min | 159.69 mmHg | 786.2 s | 171.43 mmHg | 77.87 mmHg | 95.56 mmHg | 54.3 min | 276.46 bpm | 20.4 min | 301.69 bpm | 21.6 min | 309.12 bpm | 90.59 mmHg | 67 min | 195.08 mmHg | 265.4 s | 68.9 min | Activity (Rattus norvegicus [21]): 56.1 min; Activity (Rattus norvegicus [22]): 67.9 min; Activity (Rattus norvegicus [23]): 283.5 bpm; Activity (Rattus norvegicus [24]): 84.43 mmHg; Activity (Rattus norvegicus [25]): 22.6 min; Activity (Rattus norvegicus [26]): 66.4 ms; Activity (Rattus norvegicus [27]): 22.4 min; Activity (Rattus norvegicus [28]): 297.25 bpm; Activity (Rattus norvegicus [29]): 80.16 mmHg; Activity (Rattus norvegicus [30]): 163.37 mmHg; Activity (Rattus norvegicus [31]): 182.09 mmHg
2 | O=C1/C(=C\c2ccccc2)S/C(=N\c2ccccc2)N1CC(O)CN1CCOCC1 (stereo not drawn) | 49.9 ms | 23.8 ms | 50.2 min | 51.3 min | 168.61 mmHg | 1089.8 s | 175.31 mmHg | 73.87 mmHg | 92.99 mmHg | 52.7 min | 293.54 bpm | 23.4 min | 308.42 bpm | 23.2 min | 315.15 bpm | 71.43 mmHg | 74.3 min | 195.43 mmHg | 313.5 s | 73.2 min | Activity (Rattus norvegicus [21]): 50.9 min; Activity (Rattus norvegicus [22]): 74.9 min; Activity (Rattus norvegicus [23]): 294.42 bpm; Activity (Rattus norvegicus [24]): 82.61 mmHg; Activity (Rattus norvegicus [25]): 23.7 min; Activity (Rattus norvegicus [26]): 74.2 ms; Activity (Rattus norvegicus [27]): 23.1 min; Activity (Rattus norvegicus [28]): 304.65 bpm; Activity (Rattus norvegicus [29]): 62.69 mmHg; Activity (Rattus norvegicus [30]): 131.61 mmHg; Activity (Rattus norvegicus [31]): 154.93 mmHg
3 | O=C1/C(=C\c2ccccc2)S/C(=N\c2ccccc2)N1CC(O)CN1CCCCC1 (stereo not drawn) | 52.2 ms | 21.9 ms | 51.7 min | 50.6 min | 134.16 mmHg | 886.9 s | 165.33 mmHg | 72.76 mmHg | 94.65 mmHg | 51.5 min | 268.74 bpm | 20.2 min | 303.32 bpm | 21.5 min | 308.43 bpm | 76.12 mmHg | 72.7 min | 194.76 mmHg | 279.3 s | 73.3 min | Activity (Rattus norvegicus [21]): 51.9 min; Activity (Rattus norvegicus [22]): 72.9 min; Activity (Rattus norvegicus [23]): 274.15 bpm; Activity (Rattus norvegicus [24]): 82.63 mmHg; Activity (Rattus norvegicus [25]): 22.6 min; Activity (Rattus norvegicus [26]): 71.8 ms; Activity (Rattus norvegicus [27]): 22.8 min; Activity (Rattus norvegicus [28]): 297.54 bpm; Activity (Rattus norvegicus [29]): 64.69 mmHg; Activity (Rattus norvegicus [30]): 145.87 mmHg; Activity (Rattus norvegicus [31]): 166.84 mmHg

— ChEMBL document CHEMBL3232945 (Eur J Med Chem, 2014)
